The values that follow come from patent publication US10624338B2, “Nitrite microencapsulation, and uses of microencapsulated nitrite in the manufacture of pest baits” (priority 2016, dated 2020).

A short description of this data set: Scanning electron microscope inspection of encapsulated granules. It is filed as physicochemical. Conditions: SEM. On the procedure: NaNO2 granules (food grade E250, BASF) approximately 0.2-1.0 mm and zein (USP30/NF25, Rebain International Ltd) were used as supplied. NaNO2 granules were dried in a commercial oven for 12 hours at 60° C. to remove any residual moisture. NaNO2 granules (500 g) were coated using a pan coating process; zein (10%) was dissolved in a mixture of water (10%) and ethanol (80%). For coatings containing plasticizer, zein (9.9%) was dissolved in a mixture of water (10%) and ethanol (80%) and either glycerol, PVP or PEG 400 were added at 0.1% to make a mixture containing zein and one of the potential plasticizers. To coat the NaNO2, 500 g of granules were placed in a spherical pan, the pan was rotated at 20 revolutions per minute, the liquid encapsulant solution was sprayed onto the granules at one litre per hour while the whole was warmed to 40° C. by warm predried air directed onto the granule bed to progressively evaporate the solvents. Once all coating material was applied the granules continued to be rotated to ensure drying.
NaNO2 coated in each of the four different solutions outlined above as well as uncoated NaNO2 granules were assessed visually using a scanning electron microscope (SEM) (Philips XL30S FEG, Netherlands). Samples were sputter coated with gold for 2 min (Quorum Technologies Polaron SC 7640 sputter coater, England) and viewed at an accelerating voltage of 5 kV. […]

Take `O=N[O-].[Na+]` [Uncoated NaNO2 granules, sodium nitrite]: the aggregation of granules entry (54x/55x and 250x magnification) is given as “strong tendency to aggregate”. The “surface of granule / coat (cracks)” value (1000x magnification) is given as “covered in surface fissures”.
